Measurements reported in patent US20260256925A1, “INDAZOLE DERIVATIVES AS ESTROGEN RECEPTOR DEGRADERS” (REGENTS OF THE UNIVERSITY OF MICHIGAN, priority 2022, published 2026).

Test system: not listed separately
Assay: Cell growth assay, WST-8 (compounds B1-B126)
Format: cell-based
Conditions: 96 h; T47D cell line, WST-8, 4 days; read-out: Cell growth inhibition in T47D cell line IC50
Procedure: Cell Growth Assay. The cells are seeded at certain concentration (e.g., at 1500/well) in multi-well plates overnight. Cells are subsequently treated with the compounds. A certain period of time (e.g., 4 days) after the compound treatment, 10% WST-8 reagent is added to the culture medium and incubate under certain condiction (e.g., in a CO2 incubator at 37° C. for 2.5 hours). The absorbance is measured on each sample using a microplate reader at certain wavelength (e.g., 450 nm). The relative absorbance is calculated against the vehicle control from three individually repeats.
Cell Growth Assay. The cells were seeded at 1500/well in 96 well plates overnight. One day after the seeding, they were treated with indicated doses of compounds respectively. 4 days after the compound treatment, 10% WST-8 reagent was added to the culture medium and incubate in a CO2 incubator at 37° C. for 2.5 hours. Before reading, the plate was mixed gently on an orbital shaker for one minute to ensure homogeneous distribution of color. The absorbance was measured of each sample using a microplate reader at a wavelength of 450 nm. The relative absorbance was calculated against the vehicle control from three individually repeats.

| Compound | IC50 [µM] |
| --- | --- |
| COc1c2c(cc3c1CN(C1CCC(=O)NC1=O)C3=O)CN(CC(=O)N1CCC3(CC1)CCN(c1ccc([C@@H]4c5ccc6[nH]ncc6c5C[C@@H](C)N4CC(F)(F)F)nc1)CC3)C2 (stereo partly drawn) [Compound B75, 3-(4-methoxy-6-(2-(9-(6-((6S,8R)-8-methyl-7-(2,2,2-trifluoroethyl)-6,7,8,9-tetrahydro-3H-pyrazolo[4,3-f]isoquinolin-6-yl)pyridin-3-yl)-3,9-diazaspiro[5.5]undecan-3-yl)-2-oxoethyl)-1-oxo-3,5,6,7-tetrahydropyrrolo[3,4-f]isoindol-2(1H)-yl)piperidine-2,6-dione] | < 0.001 |
| C[C@@H]1Cc2c(ccc3[nH]ncc23)[C@@H](c2c(F)cc(N3CCC(CN4CCC5(CCOc6c5ccc5c6CN(C6CCC(=O)NC6=O)C5=O)CC4)CC3)cc2F)N1CC(F)F (stereo partly drawn) [Compound B47, 3-(1-((1-(4-((6S,8R)-7-(2,2-difluoroethyl)-8-methyl-6,7,8,9-tetrahydro-3H-pyrazolo[4,3-f]isoquinolin-6-yl)-3,5-difluorophenyl)piperidin-4-yl)methyl)-7′-oxo-2′,3′,7′,9′-tetrahydro-8′H-spiro[piperidine-4,4′-pyrano[2,3-e]isoindol]-8′-yl)piperidine-2,6-dione] | < 0.001 |
| C[C@@H]1Cc2c(ccc3[nH]ncc23)[C@@H](c2c(F)cc(N3CCC4(CCN(C(=O)CN5Cc6cc7c(cc6C5)C(=O)N(C5CCC(=O)NC5=O)C7=O)CC4)CC3)cc2F)N1CC(F)F (stereo partly drawn) [Compound B15, 6-(2-(9-(4-((6S,8R)-7-(2,2-difluoroethyl)-8-methyl-6,7,8,9-tetrahydro-3H-pyrazolo[4,3-f]isoquinolin-6-yl)-3,5-difluorophenyl)-3,9-diazaspiro[5.5]undecan-3-yl)-2-oxoethyl)-2-(2,6-dioxopiperidin-3-yl)-6,7-dihydropyrrolo[3,4-f]isoindole-1,3(2H,5H)-dione] | < 0.001 |

Molecular target: T1, ER (Homo sapiens, UniProt P03372)
T1 construct: endogenous in cells; probably T47D or MCF-7
T1 sequence (P03372 1-595): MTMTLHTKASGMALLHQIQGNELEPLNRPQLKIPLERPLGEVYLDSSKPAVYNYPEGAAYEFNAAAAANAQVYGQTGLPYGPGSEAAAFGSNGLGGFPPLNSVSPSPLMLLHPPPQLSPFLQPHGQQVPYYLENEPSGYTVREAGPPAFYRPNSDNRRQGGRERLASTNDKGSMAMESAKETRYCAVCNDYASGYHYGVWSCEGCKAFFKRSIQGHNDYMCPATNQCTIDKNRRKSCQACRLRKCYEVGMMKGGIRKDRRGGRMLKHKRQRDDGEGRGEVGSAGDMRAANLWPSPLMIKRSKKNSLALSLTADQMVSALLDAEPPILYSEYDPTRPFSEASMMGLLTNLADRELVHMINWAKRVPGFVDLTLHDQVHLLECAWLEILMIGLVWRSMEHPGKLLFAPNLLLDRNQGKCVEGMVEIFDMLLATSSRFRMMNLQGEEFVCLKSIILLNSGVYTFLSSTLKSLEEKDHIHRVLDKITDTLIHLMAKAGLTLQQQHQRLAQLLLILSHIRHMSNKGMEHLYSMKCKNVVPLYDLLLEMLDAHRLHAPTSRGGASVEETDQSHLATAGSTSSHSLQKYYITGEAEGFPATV
Assay: In-cell western blot analysis, relative ER percentage (compounds B1-B126)
Format: cell-based
Conditions: ER degradation, 16 hours, read-out: ICW DC50
Procedure: In-cell western blot analysis. Cells are seeded in multi-well plates (e.g., at 40,000 or 10,000 cells/well). Diluted compounds at certain concentration are added (final 0.5% DMSO) and cells are incubated for a certain period of time (e.g., 16 hours). Formaldehyde (e.g., PBS: FA=9:1) is added and followed by washing with PBS. The cells are blocked with Licor blocking buffer (Li-Cor). The relative ER percentage in treated cells are obtained by comparing the values of treated wells to those in untreated and DMSO-treated wells as 100%.
In-cell western blot analysis. a. seed cells in black-sided/clear bottom 96- or 384-well plates at 40,000 or 10,000 cells/well, overnight; b. add diluted compounds (final 0.5% DMSO), 16 hours. […] RT 2h, gentle shaking. Negative control: cells plus secondary antibodies (no primary antibodies); e. wash×4 with PBS +0.05-0.1% Tween 20, gentel shaking; f. anti-rabbit-680 and anti-mouse-800 (both 1:1000 in LiCor block+0.05% Tween20, RT 1h, gentle shaking, no light. LI-COR: 0.2% to reduce background; g. wash×4 with PBS+0.05% Tween 20, gental shaking; h. add 100 μL or 25 μL of PBS to each well and read on CLX plate reader. The relative ER percentage in treated cells were obtained by comparing the values of treated wells to those in untreated and DMSO-treated wells as 100%.

| Compound | DC50 [µM] |
| --- | --- |
| C[C@H]1Cc2c(ccc3[nH]ncc23)[C@H](c2cnc(N3CCC4(CC3)CC(CN3CCN5c6cc7c(cc6OC[C@H]5C3)C(=O)N(C3CCC(=O)NC3=O)C7)C4)nc2)N1CC(F)(F)F (stereo partly drawn) [Compound B118, 3-((R)-3-((7-(5-((6R,8S)-8-methyl-7-(2,2,2-trifluoroethyl)-6,7,8,9-tetrahydro-3H-pyrazolo[4,3-f]isoquinolin-6-yl)pyrimidin-2-yl)-7-azaspiro[3.5]nonan-2-yl)methyl)-8-oxo-1,2,3,4,4a,5,8,10-octahydro-9H-pyrazino[1′,2′:4,5][1,4]oxazino[2,3-f]isoindol-9-yl)piperidine-2,6-dione] | 0.01 to 0.1 |
| C[C@H]1Cc2c(ccc3[nH]ncc23)[C@H](c2cnc(N3CC4(CCC(CN5CCN6c7ccc8c(c7OC[C@@H]6C5)CN([C@@H]5CCC(=O)NC5=O)C8=O)CC4)C3)nc2)N1CC(F)(F)F [Compound B123, (R)-3-((S)-7-((2-(5-((6R,8S)-8-methyl-7-(2,2,2-trifluoroethyl)-6,7,8,9-tetrahydro-3H-pyrazolo[4,3-f]isoquinolin-6-yl)pyrimidin-2-yl)-2-azaspiro[3.5]nonan-7-yl)methyl)-1-oxo-1,3,5,5a,6,7,8,9-octahydro-2H-pyrazino[1′,2′:4,5][1,4]oxazino[2,3-e]isoindol-2-yl)piperidine-2,6-dione] | < 0.01 |
| C[C@H]1Cc2c(ccc3[nH]ncc23)[C@H](c2cnc(N3CCC4(CC3)CC(CN3CCN(c5ccc(NC6CCC(=O)NC6=O)cc5F)CC3)C4)nc2)N1CC(F)(F)F (stereo partly drawn) [Compound B122, 3-((3-fluoro-4-(4-((7-(5-((6R,8S)-8-methyl-7-(2,2,2-trifluoroethyl)-6,7,8,9-tetrahydro-3H-pyrazolo[4,3-f]isoquinolin-6-yl)pyrimidin-2-yl)-7-azaspiro[3.5]nonan-2-yl)methyl)piperazin-1-yl)phenyl)amino)piperidine-2,6-dione] | > 0.1 |
| C[C@@H]1Cc2c(ccc3[nH]ncc23)[C@@H](c2c(F)cc(C3=CCC(C(=O)N4CCC(N5Cc6cc7c(cc6C5)C(=O)N(C5CCC(=O)NC5=O)C7=O)CC4)CC3)cc2F)N1CC(F)F (stereo partly shown) [Compound B102] | > 0.1 |
| C[C@H]1Cc2c(ccc3[nH]ncc23)[C@H](c2ccc(N3CCC4(CC3)CC(CN3CCN(c5ccc(NC6CCC(=O)NC6=O)cc5F)CC3)C4)cn2)N1CC(F)(F)F (stereo partly drawn) [Compound B120, 3-((3-fluoro-4-(4-((7-(6-((6R,8S)-8-methyl-7-(2,2,2-trifluoroethyl)-6,7,8,9-tetrahydro-3H-pyrazolo[4,3-f]isoquinolin-6-yl)pyridin-3-yl)-7-azaspiro[3.5]nonan-2-yl)methyl)piperazin-1-yl)phenyl)amino)piperidine-2,6-dione] | > 0.1 |
| 3-((R)-7-((7-(6-((6S,8R)-7-(2,2- difluoroethyl)-8-methyl-6,7,8,9- tetrahydro-3H-pyrazolo[4,3- f]isoquinolin-6-yl)pyridin-3-yl)-7- azaspiro[3.5]nonan-2-yl)mcthyl)-1- oxo-1,3,5,5a,6,7,8,9-octahydro-2H- pyrazino[1′,2′:4,5][1,4]oxazino[2,3- e]isoindol-2-yl)piperidine-2,6- dione [Compound B83] | > 0.1 |
| C[C@@H]1Cc2c(ccc3[nH]ncc23)[C@@H](c2ccc(N3CCC4(CCN(CC(=O)N5Cc6cc7c(cc6C5)C(=O)N(C5CCC(=O)NC5=O)C7=O)CC4)CC3)cn2)N1CC(F)F (stereo partly drawn) [Compound B50, 6-(2-(9-(6-((6S,8R)-7-(2,2-difluoroethyl)-8-methyl-6,7,8,9-tetrahydro-3H-pyrazolo[4,3-f]isoquinolin-6-yl)pyridin-3-yl)-3,9-diazaspiro[5.5]undecan-3-yl)acetyl)-2-(2,6-dioxopiperidin-3-yl)-6,7-dihydropyrrolo[3,4-f]isoindole-1,3(2H,5H)-dione] | > 0.1 |
| COc1cc(N2CCC3(CC2)CC(CN2CCC4(CC2)COc2c4ccc4c2CN(C2CCC(=O)NC2=O)C4=O)C3)ccc1[C@@H]1c2ccc3[nH]ncc3c2C[C@@H](C)N1CC(F)F (stereo partly drawn) [Compound B56, 3-(1′-((7-(4-((6S,8R)-7-(2,2-difluoroethyl)-8-methyl-6,7,8,9-tetrahydro-3H-pyrazolo[4,3-f]isoquinolin-6-yl)-3-methoxyphenyl)-7-azaspiro[3.5]nonan-2-yl)methyl)-6-oxo-6,8-dihydro-2H,7H-spiro[furo[2,3-e]isoindole-3,4′-piperidin]-7-yl)piperidine-2,6-dione] | > 0.1 |
| C[C@H]1Cc2c(ccc3[nH]ncc23)[C@H](c2ccc(N3CC4(CCC(CN5CCN(c6ccc(NC7CCC(=O)NC7=O)cc6F)CC5)CC4)C3)cn2)N1CC(F)(F)F (stereo partly drawn) [Compound B121, 3-((3-fluoro-4-(4-((2-(6-((6R,8S)-8-methyl-7-(2,2,2-trifluoroethyl)-6,7,8,9-tetrahydro-3H-pyrazolo[4,3-f]isoquinolin-6-yl)pyridin-3-yl)-2-azaspiro[3.5]nonan-7-yl)methyl)piperazin-1-yl)phenyl)amino)piperidine-2,6-dione] | > 0.1 |
| C[C@@H]1Cc2c(ccc3[nH]ncc23)[C@@H](c2cnc(N3CCC4(CC3)CC(CN3CCN5c6cc7c(cc6OC[C@@H]5C3)C(=O)N(C3CCC(=O)NC3=O)C7)C4)nc2)N1CC(F)(F)F (stereo partly drawn) [Compound B113, 3-((S)-3-((7-(5-((6S,8R)-8-methyl-7-(2,2,2-trifluoroethyl)-6,7,8,9-tetrahydro-3H-pyrazolo[4,3-f]isoquinolin-6-yl)pyrimidin-2-yl)-7-azaspiro[3.5]nonan-2-yl)mcthyl)-8-oxo-1,2,3,4,4a,5,8,10-octahydro-9H-pyrazino[1′,2′:4,5][1,4]oxazino[2,3-f]isoindol-9-yl)piperidine-2,6-dione] | < 0.01 |
